Molecules are shown by their SMILES. Where a name gives a salt, the structure may show the parent alone.

T1 sequence (P49355 whole entry, one chain of several): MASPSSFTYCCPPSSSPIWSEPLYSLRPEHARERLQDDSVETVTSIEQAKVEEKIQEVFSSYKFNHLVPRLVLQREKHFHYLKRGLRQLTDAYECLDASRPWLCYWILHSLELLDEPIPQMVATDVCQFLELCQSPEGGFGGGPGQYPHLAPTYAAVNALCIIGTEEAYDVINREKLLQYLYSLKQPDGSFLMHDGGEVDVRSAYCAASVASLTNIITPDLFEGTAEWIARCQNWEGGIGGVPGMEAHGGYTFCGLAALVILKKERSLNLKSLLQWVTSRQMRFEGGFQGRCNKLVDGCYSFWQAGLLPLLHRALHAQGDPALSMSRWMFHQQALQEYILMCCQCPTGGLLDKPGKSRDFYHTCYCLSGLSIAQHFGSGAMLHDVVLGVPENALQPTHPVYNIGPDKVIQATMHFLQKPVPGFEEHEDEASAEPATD

One assay addresses T1, Farnesyltransferase (FTase) (Bos taurus, UniProt P29702+P49355).
T1 construct: precipitation from a beef brain homogenate; from tissue; host or cells: bovine brain
The assay is described as follows: Farnesyltransferase inhibition (scintillation proximity assay, [3H]-FPP / biotin-K-ras peptide). Format: biochemical, bovine.
Conditions: not given
On the procedure: Farnesyltransferase (FTase) or geranylgeranyltransferase I (GGTase I) fractions were isolated from bovine brains and purified by a series of methods which separate FTase from GGTase I and GGTase I from GGTase II. The methods involved a partial purification of all three enzymes by precipitation from a beef brain homogenate with 30% to 50% saturated […] followed by chromatography on DEAE Sepharose. […] The catalytic purity of each enzyme was assayed separately with substrate acceptor proteins specific for that enzyme. After quickly freezing in liquid nitrogen, the various prenyl transferases were stored at −80° C.
The quenched reactions stood for 1 hour before analysis in a Packard TopCount scintillation counter. Purified compounds were dissolved in 100% ethanol and diluted 10-fold into the assay.
(In general: In a scintillation proximity assay essentially only radioactivity close to the scintillant gives light.)
`Cc1ccccc1-c1cc(C(NCc2ccc([N+](=O)[O-])cc2)c2cncn2C)ccc1C#N` (centres unmarked) [Example 12]: the “% Inhibition at 10^−6M” value is 100%. The same measure, in the same setting: the result for `Cc1ccccc1-c1cc(C(c2cncn2C)N2CCN(c3cccc(OC(F)(F)F)c3)C(=O)C2)ccc1C#N.Cl.Cl` (centres unmarked) [Example 15] reads 100%.

Still in this assay, the particulars now being: compound at 10^−6 M; bovine FTase, 37° C., 30 minutes.
Consider `Cc1ccccc1-c1cc(C(Oc2ccccc2)c2cncn2C)ccc1C#N` (centres unmarked) [Example 4, 2′-methyl-5-((1-methyl-1H-imidazol-5-yl)(phenoxy)methyl)(1,1′-biphenyl)-2-carbonitrile hydrochloride], for which the inhibition at 1 µM stood at 88%.

On to `COc1ccccc1-c1cc(C(OCc2ccccc2)c2cncn2C)ccc1C#N` (centres unmarked) [Example 5, 5-((benzyloxy)(1-methyl-1H-imidazol-5-yl)methyl)-2′-methoxy(1,1′-biphenyl)-2-carbonitrile hydrochloride], for which the inhibition at 1 µM came out at 91%.

On to `Cn1cncc1C(OCc1ccccc1)c1ccc(C#N)c(-c2cccc(-c3ccccc3)c2)c1` (centres unmarked) [Example 6, 5-((benzyloxy)(1-methyl-1H-imidazol-5-yl)methyl)-3′-(phenyl)(1,1′-biphenyl)-2-carbonitrile hydrochloride], for which the inhibition at 1 µM was 61%.

For `Cl.Cn1cncc1C(OCc1ccccc1)c1ccc(C#N)c(-c2c3ccccc3cc3ccccc23)c1` (centres unmarked) [Example 7], the “% Inhibition at 10^−6M” value was 92%.

In the case of `CC(C)c1ccccc1-c1cc(C(OCc2ccccc2)c2cncn2C)ccc1C#N` (centres unmarked) [Example 8, 5-((benzyloxy)(1-methyl-1H-imidazol-5-yl)methyl)-2′-isopropyl(1,1′-biphenyl)-2-carbonitrile hydrochloride], the inhibition at 1 µM stood at 100%. The same measure, in the same setting: the value for `Cn1cncc1C(OCc1ccccc1)c1ccc(C#N)c(-c2ccc3c4c(cccc24)CC3)c1` (centres unmarked) [Example 9, 4-((benzyloxy)(1-methyl-1H-imidazol-5-yl)methyl)-2-(1,2-dihydro-5-acenaphthylenyl)benzonitrile hydrochloride] was 64%; that for `Cn1cncc1C(OCc1ccccc1)c1ccc(C#N)c(-c2ccccc2Cl)c1` (centres unmarked) [Example 10, 5-((benzyloxy)(1-methyl-1H-imidazol-5-yl)methyl)-2′-chloro(1,1′-biphenyl)-2-carbonitrile hydrochloride] was 94%. The same measure, in the same setting: the result for `Cc1ccccc1-c1cc(C(OCc2ccccc2)c2cncn2C)ccc1C#N` (centres unmarked) [Example 11, 5-((benzyloxy)(1-methyl-1H-imidazol-5-yl)methyl)-2′-methyl(1,1′-biphenyl)-2-carbonitrile hydrochloride] reads 94%. The same measure, in the same setting: the value for `Cn1cncc1C(NCc1ccc(C#N)cc1)c1ccc(C#N)c(-c2cccc3ccccc23)c1` (centres unmarked) [Example 13, 4-(((4-cyanobenzyl)amino)(1-methyl-1H-imidazol-5-yl)methyl)-2-(1-naphthyl)benzonitrile dihydrochloride] was 100%; that for `Cn1cncc1C(OCC1CCCCC1)c1ccc(C#N)c(-c2cccc3ccccc23)c1` (centres unmarked) [Example 14, 4-((cyclohexylmethoxy)(1-methyl-1H-imidazol-5-yl)methyl)-2-(1-naphthyl)benzonitrile hydrochloride] was 100%.

For the compound `Cc1ccccc1-c1cc(C(NC2CCN(C(=O)c3ccccc3)CC2)c2cncn2C)ccc1C#N` (centres unmarked) [Example 16, 5-(((1-benzoyl-4-piperidinyl)amino)(1-methyl-1H-imidazol-5-yl)methyl)-2′-methyl(1,1′-biphenyl)-2-carbonitrile dihydrochloride], the inhibition at 1 µM was determined as 100%.

Consider `Cl.Cl.Cn1cncc1C(NCc1ccc(S(C)(=O)=O)cc1)c1ccc(C#N)c(-c2cccc3ccccc23)c1` (centres unmarked) [Example 17], for which the “% Inhibition at 10^−6M” value came to 100%. For the compound `Cn1cncc1C(OCc1ccc(C#N)cc1)c1ccc(C#N)c(-c2cccc3cccnc23)c1` (centres unmarked) [Example 18, 4-(((4-cyanobenzyl)oxy)(1-methyl-1H-imidazol-5-yl)methyl)-2-(8-quinolinyl)benzonitrile dihydrochloride], testing at 1 µM gave an inhibition of 100%.

In turn, `Cn1cncc1C(OCc1ccc(C#N)cc1)c1ccc(C#N)c(-c2ccnc3ccccc23)c1` (centres unmarked) [Example 19, 4-(((4-cyanobenzyl)oxy)(1-methyl-1H-imidazol-5-yl)methyl)-2-(4-quinolinyl)benzonitrile dihydrochloride] returned an inhibition at 1 µM of 100%. As to `Cc1ccccc1-c1cc(C(NCc2ccccc2)c2cncn2C)ccc1C#N` (centres unmarked) [Example 23, 5-((benzylamino)(1-methy-1H-imidazol-5-yl)methyl)-2′-methyl(1,1′-biphenyl)-2-carbonitrile], the “% Inhibition at 10^−6M” value amounted to 100%. Take `Cc1ccccc1-c1cc(C(NCC2CCCCC2)c2cncn2C)ccc1C#N` (centres unmarked) [Example 24, 5-(((cyclohexylmethyl)amino)(1-methyl-1H-imidazol-5-yl)methyl)-2′-methyl(1,1′-biphenyl)-2-carbonitrile]: the inhibition at 1 µM worked out at 100%.

`Cc1ccccc1-c1cc(C(NCc2ccc(C#N)cc2)c2cncn2C)ccc1C#N` (centres unmarked) [Example 25, 5-(((4-cyanobenzyl)amino)(1-methyl-1H-imidazol-5-yl)methyl)-2′-methyl(1,1′-biphenyl)-2-carbonitrile]: the inhibition at 1 µM came out at 100%.

As to `Cc1ccccc1-c1cc(CNC(c2ccc(C#N)c(-c3ccccc3C)c2)c2cncn2C)ccc1C#N` (centres unmarked) [Example 26], the “% Inhibition at 10^−6M” value is given as 100%.

For the compound `CCN(Cc1ccc([N+](=O)[O-])cc1)C(c1ccc(C#N)c(-c2ccccc2C)c1)c1cncn1C` (centres unmarked) [Example 27, 5-((ethyl(4-nitrobenzyl)amino)(1-methyl-1H-imidazol-5-yl)methyl)-2′-methyl(1,1′-biphenyl)-2-carbonitrile dihydrochloride], the inhibition at 1 µM was found to be 100%. Take `CCN(Cc1ccc(C#N)cc1)C(c1ccc(C#N)c(-c2ccccc2C)c1)c1cncn1C` (centres unmarked) [Example 28, 5-(((4-cyanobenzyl)(ethyl)amino)(1-methyl-1H-imidazol-5-yl)methyl)-2′-methyl(1,1′-biphenyl)-2-carbonitrile dihydrochloride]: the inhibition at 1 µM turned out to be 100%. The same measure, in the same setting: the value for `CN(Cc1ccc(C#N)cc1)C(c1ccc(C#N)c(-c2cccc3ccccc23)c1)c1cncn1C` (centres unmarked) [Example 29, 4-(((4-cyanobenzyl)(methyl)amino)(1-methyl-1H-imidazol-5-yl)methyl)-2-(1-naphthyl)benzonitrile] was 100%; that for `CCCCN(Cc1ccc(C#N)cc1)C(c1ccc(C#N)c(-c2cccc3ccccc23)c1)c1cncn1C` (centres unmarked) [Example 30, 4-((butyl(4-cyanobenzyl)amino)(1-methyl-1H-imidazol-5-yl)methyl)-2-(1-naphthyl)benzonitrile dihydrochloride] was 100%; that for `Cn1cncc1C(NCCc1ccccc1)c1ccc(C#N)c(-c2cccc3ccccc23)c1` (centres unmarked) [Example 31, 4-((1-methyl-1H-imidazol-5-yl)(phenethylamino)methyl)-2-(1-naphthyl)benzonitrile] was 100%.

As to `Cc1ccccc1-c1cc(CN(Cc2ccccc2)Cc2cncn2C)ccc1C#N` [Example 32, 5-((benzyl((1-methyl-1H-imidazol-5-yl)methyl)amino)methyl)-2′-methyl(1,1′-biphenyl)-2-carbonitrile dihydrochloride], the inhibition at 1 µM was determined as 93%.

For orientation: % Inhibition means how much of the control response was suppressed. As usually defined, the inhibition is how much of the control response was suppressed. A high value points to a response far below the control.

The values above are taken from patent US20020019527A1 (priority 2000, published 2002).
